PubChem BioAssay AID330 (DTP/NCI, 2004)
Where “and” joins values, the source holds several entries; their conditions need not be identical. Identical values can stand only once. Inconclusive results and toxic doses are left out.

Test system: P388 leukemia ip, CD2F1 mice, survival T/C
Experiment: NCI In Vivo Anticancer Drug Screen. Data for tumor model P388 Leukemia (intraperitoneal) in CD2F1 (CDF1) mice
Conditions: endpoint: median survival time, higher = longer survival
Procedure, shortened: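 Mice carrying the transplanted tumor received test compound or vehicle. Survival was recorded in each group, and the value is the treated-group measurement divided by that of the vehicle-treated control group.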

[1] = dose: 25.0 mg/kg/injection, schedule: Q01DX009 (ip), vehicle: saline
[2] = dose: 50.0 mg/kg/injection, schedule: Q01DX009 (ip), vehicle: saline
[3] = dose: 50.0 mg/kg/injection, schedule: Q01DX009 (ip), vehicle: saline with Tween-80
[4] = dose: 100.0 mg/kg/injection, schedule: Q01DX009 (ip), vehicle: saline with Tween-80
[5] = dose: 200.0 mg/kg/injection, schedule: Q01DX009 (ip), vehicle: saline with Tween-80
[6] = dose: 100.0 mg/kg/injection, schedule: Q01DX001 (ip), vehicle: Klucel (hydroxypropylcellulose) (HPC)
[7] = dose: 200.0 mg/kg/injection, schedule: Q01DX001 (ip), vehicle: Klucel (hydroxypropylcellulose) (HPC)
[8] = dose: 400.0 mg/kg/injection, schedule: Q01DX001 (ip), vehicle: Klucel (hydroxypropylcellulose) (HPC)
[9] = dose: 100.0 mg/kg/injection, schedule: Q01DX009 (ip), vehicle: saline
[10] = dose: 200.0 mg/kg/injection, schedule: Q01DX009 (ip), vehicle: saline
[11] = dose: 25.0 mg/kg/injection, schedule: Q01DX009 (ip), vehicle: saline with Tween-80
[12] = dose: 50.0 mg/kg/injection, schedule: Q01DX005 (ip), vehicle: Klucel (hydroxypropylcellulose) (HPC)
[13] = dose: 100.0 mg/kg/injection, schedule: Q01DX005 (ip), vehicle: Klucel (hydroxypropylcellulose) (HPC)
[14] = dose: 6.25 mg/kg/injection, schedule: Q01DX009 (ip), vehicle: saline with Tween-80
[15] = dose: 50.0 mg/kg/injection, schedule: Q01DX005 (ip), vehicle: saline with Tween-80
[16] = dose: 100.0 mg/kg/injection, schedule: Q01DX005 (ip), vehicle: saline with Tween-80
[17] = dose: 200.0 mg/kg/injection, schedule: Q01DX005 (ip), vehicle: Klucel (hydroxypropylcellulose) (HPC)
[18] = dose: 50.0 mg/kg/injection, schedule: Q01DX009 (ip), vehicle: Klucel (hydroxypropylcellulose) (HPC)
[19] = dose: 100.0 mg/kg/injection, schedule: Q01DX009 (ip), vehicle: Klucel (hydroxypropylcellulose) (HPC)
[20] = dose: 25.0 mg/kg/injection, schedule: Q01DX009 (ip), vehicle: Klucel (hydroxypropylcellulose) (HPC)

Cc1cccc(Cl)c1NC(=O)C(C)N1CCCC1 (configuration not stated)
T/C (dose: 12.5 mg/kg/injection, schedule: Q01DX009 (ip), vehicle: saline): 100 % of control
T/C [1]: 90 % of control
T/C [2]: 109 % of control

CCOC(=O)N(O)c1ccc(C(N)=O)cc1
T/C [3]: 100 % of control
T/C [4]: 97 % of control
T/C [5]: 108 % of control

C1COC(NC2CC3CCC2C3)=N1 (configuration not stated)
T/C (dose: 6.25 mg/kg/injection, schedule: Q04DX003 (ip), vehicle: saline with Tween-80): 100 % of control
T/C (dose: 12.5 mg/kg/injection, schedule: Q04DX003 (ip), vehicle: saline with Tween-80): 100 % of control
T/C (dose: 25.0 mg/kg/injection, schedule: Q04DX003 (ip), vehicle: saline with Tween-80): 100 % of control

CC(=O)C1=C(C(C)=O)C2(C)OC1(C)c1ccccc12
T/C [6]: 107 % of control
T/C [7]: 104 % of control
T/C [8]: 99 % of control

C[N+](C)=c1ccc2nc3c(ccc4ccccc43)oc-2c1
T/C (dose: 3.12 mg/kg/injection, schedule: Q01DX005 (ip), vehicle: saline with Tween-80): 105 % of control
T/C (dose: 6.25 mg/kg/injection, schedule: Q01DX005 (ip), vehicle: saline with Tween-80): 105 % of control
T/C (dose: 12.5 mg/kg/injection, schedule: Q01DX005 (ip), vehicle: saline with Tween-80): 103 % of control

S=C(Nc1ccc(N=Nc2ccccc2)cc1)SCc1ccc(Cl)cc1
T/C [2]: 97 % of control
T/C [9]: 103 % of control
T/C [10]: 100 % of control
T/C (dose: 200.0 mg/kg/injection, schedule: Q01DX009 (ip), vehicle: suspension in saline): 93 % of control

CC(=O)c1ccc(C)cc1C
T/C [11]: 98 % of control
T/C [3]: 98 % of control
T/C [4]: 104 % of control and 110 % of control
T/C [5]: 118 % of control

Cc1cc2ccccc2c[n+]1[O-]
T/C [12]: 97 % of control
T/C [13]: 112 % of control

CN(C)CCCNC(=O)c1ccc2c(c1)C(=O)c1ccccc1C2=O
T/C (dose: 100.0 mg/kg/injection, schedule: Q04DX003 (ip), vehicle: water): 107 % of control
T/C (dose: 200.0 mg/kg/injection, schedule: Q04DX003 (ip), vehicle: water): 115 % of control

O=C(/C=C/c1ccc(Cl)cc1)c1ccccc1O
T/C [11]: 98 % of control
T/C [3]: 103 % of control
T/C [4]: 107 % of control
T/C [5]: 100 % of control

N=C(N)c1ccc(C#Cc2ccc(C(=N)N)cc2)cc1
T/C (dose: 3.13 mg/kg/injection, schedule: Q01DX009 (ip), vehicle: saline with Tween-80): 94 % of control
T/C [14]: 92 % of control
T/C (dose: 12.5 mg/kg/injection, schedule: Q01DX009 (ip), vehicle: saline with Tween-80): 95 % of control

C=C(C)C(C(=O)OCC)C(=O)OCC
T/C [3]: 101 % of control
T/C [4]: 107 % of control
T/C [5]: 110 % of control

C[CH2][Ge]([CH3])([CH2]C)[CH2]CCC[CH2][Sn]([CH3])([CH3])[CH3]
T/C [2]: 98 % of control
T/C [9]: 99 % of control
T/C [10]: 97 % of control

COC(=O)C[CH2][Sn]([Cl])([Cl])[Cl]
T/C (dose: 25.0 mg/kg/injection, schedule: Q04DX003 (ip), vehicle: saline): 98 % of control
T/C (dose: 50.0 mg/kg/injection, schedule: Q04DX003 (ip), vehicle: saline): 100 % of control
T/C (dose: 100.0 mg/kg/injection, schedule: Q04DX003 (ip), vehicle: saline): 100 % of control and 96 % of control

Nc1nnc(-c2ccc(Br)cc2)o1
T/C (dose: 60.0 mg/kg/injection, schedule: Q01DX005 (ip), vehicle: saline with Tween-80): 106 % of control
T/C (dose: 120.0 mg/kg/injection, schedule: Q01DX005 (ip), vehicle: saline with Tween-80): 109 % of control
T/C (dose: 240.0 mg/kg/injection, schedule: Q01DX005 (ip), vehicle: saline with Tween-80): 114 % of control

CC1=CC(OC(C)C)OC1=O (configuration not stated)
T/C (dose: 50.0 mg/kg/injection, schedule: Q01DX005 (ip), vehicle: saline): 108 % of control
T/C (dose: 100.0 mg/kg/injection, schedule: Q01DX005 (ip), vehicle: saline): 110 % of control
T/C (dose: 200.0 mg/kg/injection, schedule: Q01DX005 (ip), vehicle: saline): 110 % of control

CC(=N/N=C(N)N)/C(C)=N/N=C(N)N
T/C [15]: 104 % of control
T/C [16]: 110 % of control

Cc1ccc(OP(=O)(Oc2ccc(C)cc2)Oc2ccc(C)cc2)cc1.Cc1ccc(OP(=O)(Oc2ccc(C)cc2)Oc2ccc(C)cc2)cc1.[Cl][Co][Cl]
T/C [6]: 96 % of control
T/C [7]: 100 % of control
T/C [8]: 92 % of control

CN(C)CCN(C)C(=N)N
T/C [1]: 100 % of control and 105 % of control
T/C [2]: 104 % of control
T/C [9]: 91 % of control and 96 % of control
T/C [10]: 88 % of control and 94 % of control

COC1=C/C(=C\N(O)C(C)(C)CO)C=CC1=O
T/C [3]: 99 % of control
T/C [4]: 91 % of control
T/C [5]: 91 % of control

COc1cc(C(=O)NNC(C)C)cc(OC)c1OC
T/C [12]: 104 % of control
T/C [13]: 100 % of control
T/C [17]: 107 % of control

CC(=O)C1C(=O)C(=O)N(c2ccc(Cl)cc2)C1=O (configuration not stated)
T/C [18]: 101 % of control
T/C [19]: 96 % of control
T/C (dose: 200.0 mg/kg/injection, schedule: Q01DX009 (ip), vehicle: Klucel (hydroxypropylcellulose) (HPC)): 104 % of control

c1cc(CSC2=NCCN2)c2cccc(CSC3=NCCN3)c2c1
T/C (dose: 12.5 mg/kg/injection, schedule: Q01DX005 (ip), vehicle: Klucel (hydroxypropylcellulose) (HPC)): 103 % of control
T/C (dose: 25.0 mg/kg/injection, schedule: Q01DX005 (ip), vehicle: Klucel (hydroxypropylcellulose) (HPC)): 107 % of control
T/C [12]: 103 % of control and 112 % of control

O=[N+]([O-])c1ccc(-c2nc(/C=N/N3CCSCC3)cs2)s1
T/C [11]: 100 % of control
T/C [3]: 95 % of control
T/C [4]: 95 % of control

CSCNC(=S)Nc1ccc(Cl)c(Cl)c1
T/C [3]: 100 % of control
T/C [4]: 107 % of control

COC1/C=C\OC2(C)Oc3c(C)c(O)c4c(O)c(c5[nH]c(-c6ccccc6)nc5c4c3C2=O)NC(=O)/C(C)=C\C=C\C(C)C(O)C(C)C(O)C(C)C(OC(C)=O)C1C (configuration not stated)
T/C [20]: 106 % of control
T/C [18]: 100 % of control
T/C [19]: 88 % of control

Cc1c([N+](=O)[O-])c(=O)[nH]n1C
T/C [3]: 96 % of control
T/C [4]: 88 % of control
T/C [5]: 89 % of control

Nc1nc(C2CCCCC2)c(Br)c(=O)[nH]1
T/C [12]: 97 % of control
T/C [13]: 92 % of control
T/C [17]: 92 % of control

CC1=C(C)CC2(CC1)C(=O)C1(CCC(C)=C(C)C1)C2=O (configuration not stated)
T/C [3]: 93 % of control
T/C [4]: 90 % of control
T/C [5]: 99 % of control

N#CC/C(=N\Nc1ccc([N+](=O)[O-])cc1[N+](=O)[O-])c1ccccc1
T/C (dose: 100.0 mg/kg/injection, schedule: Q04DX003 (ip), vehicle: saline with Tween-80): 100 % of control
T/C (dose: 200.0 mg/kg/injection, schedule: Q04DX003 (ip), vehicle: saline with Tween-80): 90 % of control
T/C (dose: 400.0 mg/kg/injection, schedule: Q04DX003 (ip), vehicle: saline with Tween-80): 95 % of control

CCOC(=O)/C=C(/C)Sc1cc(O)c2ccccc2c1O
T/C [14]: 100 % of control

O=c1[nH]c(=O)c2nc(-c3ccc(Cl)c(Cl)c3)cnc2[nH]1
T/C (dose: 100.0 mg/kg/injection, schedule: Q01DX001 (ip), vehicle: saline): 100 % of control
T/C (dose: 200.0 mg/kg/injection, schedule: Q01DX001 (ip), vehicle: saline): 116 % of control
T/C (dose: 400.0 mg/kg/injection, schedule: Q01DX001 (ip), vehicle: saline): 91 % of control

O=P(C/C=C/CO)(c1ccccc1)c1ccccc1
T/C [15]: 98 % of control
T/C [16]: 98 % of control
T/C (dose: 200.0 mg/kg/injection, schedule: Q01DX005 (ip), vehicle: saline with Tween-80): 103 % of control

CCCCCC(=O)OCCN1CCN(CCCN2c3ccccc3Sc3ccc(C(F)(F)F)cc32)CC1
T/C (dose: 12.5 mg/kg/injection, schedule: Q01DX009 (ip), vehicle: Klucel (hydroxypropylcellulose) (HPC)): 113 % of control
T/C [20]: 101 % of control

COc1ccccc1N1CCN(C(=O)CCCl)CC1
T/C (dose: 60.0 mg/kg/injection, schedule: Q01DX005 (ip), vehicle: Klucel (hydroxypropylcellulose) (HPC)): 109 % of control
T/C (dose: 120.0 mg/kg/injection, schedule: Q01DX005 (ip), vehicle: Klucel (hydroxypropylcellulose) (HPC)): 103 % of control
T/C (dose: 240.0 mg/kg/injection, schedule: Q01DX005 (ip), vehicle: Klucel (hydroxypropylcellulose) (HPC)): 105 % of control
